Experimental data taken from US9732087B2, “Diamino-pyridine, pyrimidine, and pyridazine modulators of the histamine H4 receptor” (JANSSEN PHARMACEUTICA NV, priority 2008, dated 2017).

Target: human H4 receptor (Homo sapiens (Human), UniProt Q9H3N8)
Assay: Binding assay on recombinant human histamine H4 receptor ([3H]histamine competition, SK-N-MC cell membranes)
Details: membranes harvested with 96 well Brandel system; [3H]histamine 10 nM; average of results; read-out: Brandel Ki
Description: Binding Assay on Recombinant Human Histamine H4Receptor
Cell pellets from SK-N-MC cells stably or transiently transfected with human H4 receptor (NCBI accession No. AF312230) were used for the binding assays. Cell pellets were homogenized in 50 mM Tris/5 mM EDTA buffer and supernatants from an 800 g spin were collected and recentrifuged at 30,000 g for 30 min. Pellets were rehomogenized in 50 mM Tris/5 mM EDTA buffer. […] Membranes were harvested by rapid filtration using the 96 well Brandel system (Table 1, Brandel) or a cell harvester (Table 1, Cell Harvester) using a Whatman GF/C filter or filter plates treated with 0.5% polyethylenimine (PEI), and washed 4 times with ice-cold 50 mM Tris/5 mM EDTA buffer. Filters were then dried, mixed with scintillant and radioactive counts were determined. […] Where activity is shown as greater than (>) a particular value, the value is the highest concentration tested.

Sequence of human H4 receptor (Q9H3N8 whole entry): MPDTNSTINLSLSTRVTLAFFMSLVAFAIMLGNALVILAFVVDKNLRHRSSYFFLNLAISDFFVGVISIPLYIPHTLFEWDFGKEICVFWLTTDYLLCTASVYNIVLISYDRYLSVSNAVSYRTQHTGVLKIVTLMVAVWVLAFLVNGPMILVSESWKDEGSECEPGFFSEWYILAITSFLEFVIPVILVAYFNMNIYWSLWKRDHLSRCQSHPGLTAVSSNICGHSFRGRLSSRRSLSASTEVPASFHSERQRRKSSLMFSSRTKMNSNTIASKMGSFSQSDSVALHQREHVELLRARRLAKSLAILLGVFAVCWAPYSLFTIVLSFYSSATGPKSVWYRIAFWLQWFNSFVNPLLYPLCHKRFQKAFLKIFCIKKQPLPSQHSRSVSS

Going from `CN1CCN(c2ccnc(NC3CC4CCC3C4)n2)CC1` (centres unmarked) [Example 44, N-[Bicyclo[2.2.1]hept-2-yl]-4-(4-methylpiperazin-1-yl)pyrimidin-2-amine] to `c1cc(N2CCNCC2)nc(NC2CC3CCC2C3)n1` (centres unmarked) [Example 70, Bicyclo[2.2.1]hept-2-yl-(4-piperazin-1-yl-pyrimidin-2-yl)-amine], the Ki rises from 31.5 nM to 240 nM (7.6-fold).

First: CC(C)Nc1nccc(N2CCN(C)CC2)n1 [Example 53, N-(1-Methylethyl)-4-(4-methylpiperazin-1-yl)pyrimidin-2-amine]
Second: CC(C)Nc1nccc(N2CC(N)C2)n1 [Example 90, 4-(3-Aminoazetidin-1-yl)-N-(1-methylethyl)pyrimidin-2-amine]
The Ki of the first is 2.8-fold lower: 24.3 nM for the first, 68.9 nM for the second. The first binds more tightly here.

Compared with `N[C@@H]1CCN(c2ccnc(NC3CC3)n2)C1` [Example 55, 4-[(3R)-3-Aminopyrrolidin-1-yl]-N-cyclopropylpyrimidin-2-amine], `c1cc(N2CCNCC2)nc(NCC2CC2)n1` [Example 66, Cyclopropylmethyl-(4-piperazin-1-yl-pyrimidin-2-yl)-amine] is 11-fold lower in Ki: 138 nM for the first, 12.2 nM for the second.

Going from `CC(C)CNc1nccc(N2CCNCC2)n1` [Example 65, Isobutyl-(4-piperazin-1-yl-pyrimidin-2-yl)-amine] to `CC(C)CNc1nccc(N2CC(N)C2)n1` [Example 89, 4-(3-Aminoazetidin-1-yl)-N-(2-methylpropyl)pyrimidin-2-amine], the Ki falls from 46.3 nM to 26.2 nM (1.8-fold). The second binds more tightly here.

In the case of `CCCCNc1nccc(N2CC[C@@H](NC)C2)n1` [Example 73, Butyl-[4-(3R)-(3-methylamino-pyrrolidin-1-yl)-pyrimidin-2-yl]-amine], the Ki is reported as 2 nM.

Same assay, conditions: membranes harvested with cell harvester; [3H]histamine 10 nM; average of results; read-out: Cell Harvester Ki

Compared with `c1cc(N2CCNCC2)cc(NCC2CCCO2)n1` (centres unmarked) [Example 39, 4-Piperazin-1-yl-N-(tetrahydrofuran-2-ylmethyl)pyridin-2-amine], `c1cc(N2CCNCC2)nc(NC[C@H]2CCCO2)n1` [Example 69, (R)-(4-Piperazin-1-yl-pyrimidin-2-yl)-(tetrahydro-furan-2-ylmethyl)-amine] is higher in Ki: 554 nM for the first, greater than 10000 nM for the second. The first binds more tightly here.

Going from `Fc1ccc(CNc2cc(N3CCNCC3)ccn2)cc1` [Example 40, N-(4-Fluorobenzyl)-4-piperazin-1-ylpyridin-2-amine] to `CN1CCN(c2ccnc(NCc3ccc(F)cc3)n2)CC1` [Example 58, N-(4-Fluorobenzyl)-4-(4-methylpiperazin-1-yl)pyrimidin-2-amine], the Ki falls from 790 nM to 342 nM (2.3-fold).

Going from `CN[C@@H]1CCN(c2ccnc(NCC(C)(C)C)c2)C1` [Example 41, N-(2,2-Dimethylpropyl)-4-[(3R)-3-(methylamino)pyrrolidin-1-yl]pyridin-2-amine] to `CN[C@@H]1CCN(c2ccnc(NCCOC)c2)C1` [Example 42, N-(2-Methoxyethyl)-4-[(3R)-3-(methylamino)pyrrolidin-1-yl]pyridin-2-amine], the Ki rises from 2.2 nM to 31.8 nM (14-fold). The first binds more tightly here.

Going from `N[C@@H]1CCN(c2ccnc(NC3CC4CCC3C4)n2)C1` (stereo partly drawn) [Example 43, 4-[(3R)-3-Aminopyrrolidin-1-yl]-N-[bicyclo[2.2.1]hept-2-yl]pyrimidin-2-amine] to `NC1CN(c2ccnc(NC3CC4CCC3C4)n2)C1` (centres unmarked) [Example 87, 4-(3-Aminoazetidin-1-yl)-N-bicyclo[2.2.1]hept-2-ylpyrimidin-2-amine], the Ki rises from 3.3 nM to 33.7 nM (10-fold). The first binds more tightly here.

`CN1CCN(c2ccnc(NC3CC4CCC3C4)n2)CC1` (centres unmarked) [Example 44, N-[Bicyclo[2.2.1]hept-2-yl]-4-(4-methylpiperazin-1-yl)pyrimidin-2-amine] and `c1cc(N2CCNCC2)nc(NC2CC3CCC2C3)n1` (centres unmarked) [Example 70, Bicyclo[2.2.1]hept-2-yl-(4-piperazin-1-yl-pyrimidin-2-yl)-amine] are within 1.5-fold of each other in Ki: 85.7 nM for the first, 73 nM for the second.

First: CN1CCN(c2ccnc(NCC3CC3)n2)CC1 [Example 45, N-(Cyclopropylmethyl)-4-(4-methylpiperazin-1-yl)pyrimidin-2-amine]
Second: CN1CCN(c2ccnc(NC3CC3)n2)CC1 [Example 56, N-Cyclopropyl-4-(4-methylpiperazin-1-yl)pyrimidin-2-amine]
The Ki of the first is 80-fold lower: 7.1 nM for the first, 568 nM for the second. The first binds more tightly here.

Compared with `CCCCNc1nccc(N2CC[C@@H](N)C2)n1` [Example 46, 4-[(3R)-3-Aminopyrrolidin-1-yl]-N-butylpyrimidin-2-amine], `CCCCNc1nccc(N2CC(N)C2)n1` [Example 84, [4-(3-Amino-azetidin-1-yl)-pyrimidin-2-yl]-butyl-amine] is 4-fold higher in Ki: 8.4 nM for the first, 33.3 nM for the second. The first binds more tightly here.

First: CCCCNc1nccc(N2CCN(C)CC2)n1 [Example 47, N-Butyl-4-(4-methylpiperazin-1-yl)pyrimidin-2-amine]
Second: COCCNc1nccc(N2CCN(C)CC2)n1 [Example 60, N-(2-Methoxyethyl)-4-(4-methylpiperazin-1-yl)pyrimidin-2-amine]
The Ki of the first is 10-fold lower: 33.2 nM for the first, 342 nM for the second.

Compared with `CN1CCN(c2ccnc(NC3CCCC3)n2)CC1` [Example 48, N-Cyclopentyl-4-(4-methylpiperazin-1-yl)pyrimidin-2-amine], `CN1CCN(c2ccnc(NC3CCC3)n2)CC1` [Example 54, N-Cyclobutyl-4-(4-methylpiperazin-1-yl)pyrimidin-2-amine] is 3.3-fold higher in Ki: 26.7 nM for the first, 87.9 nM for the second. The first binds more tightly here.

Going from `CN1CCN(c2ccnc(NCC3CCCO3)n2)CC1` (centres unmarked) [Example 50, 4-(4-Methylpiperazin-1-yl)-N-(tetrahydrofuran-2-ylmethyl)pyrimidin-2-amine] to `N[C@@H]1CCN(c2ccnc(NCC3CCCO3)n2)C1` (stereo partly drawn) [Example 51, 4-[(R)-3-Aminopyrrolidin-1-yl]-N-(tetrahydrofuran-2-ylmethyl)pyrimidin-2-amine], the Ki rises from 33.2 nM to 123 nM (3.7-fold). The first binds more tightly here.

Going from `CC(C)Nc1nccc(N2CC[C@@H](N)C2)n1` [Example 52, 4-[(3R)-3-Aminopyrrolidin-1-yl]-N-(1-methylethyl)pyrimidin-2-amine] to `CC(C)Nc1nccc(N2CC(N)C2)n1` [Example 90, 4-(3-Aminoazetidin-1-yl)-N-(1-methylethyl)pyrimidin-2-amine], the Ki rises from 33.4 nM to 106 nM (3.2-fold).

Going from `CC(C)Nc1nccc(N2CCN(C)CC2)n1` [Example 53, N-(1-Methylethyl)-4-(4-methylpiperazin-1-yl)pyrimidin-2-amine] to `CC(C)Nc1nccc(N2CCNCC2)n1` [Example 67, Isopropyl-(4-piperazin-1-yl-pyrimidin-2-yl)amine], the Ki rises from 85.7 nM to 275 nM (3.2-fold).

Going from `N[C@@H]1CCN(c2ccnc(NC3CC3)n2)C1` [Example 55, 4-[(3R)-3-Aminopyrrolidin-1-yl]-N-cyclopropylpyrimidin-2-amine] to `NC1CN(c2ccnc(NC3CC3)n2)C1` [Example 91, 4-(3-Aminoazetidin-1-yl)-N-cyclopropylpyrimidin-2-amine], the Ki rises from 102 nM to 182 nM (1.8-fold).

Compared with `N[C@@H]1CCN(c2ccnc(NCc3ccc(F)cc3)n2)C1` [Example 57, 4-[(3R)-3-Aminopyrrolidin-1-yl]-N-(4-fluorobenzyl)pyrimidin-2-amine], `NC1CN(c2ccnc(NCc3ccc(F)cc3)n2)C1` [Example 92, 4-(3-Aminoazetidin-1-yl)-N-(4-fluorobenzyl)pyrimidin-2-amine] is 4.4-fold higher in Ki: 140 nM for the first, 615 nM for the second.

Going from `COCCNc1nccc(N2CC[C@@H](N)C2)n1` [Example 59, 4-[(3R)-3-Aminopyrrolidin-1-yl]-N-(2-methoxyethyl)pyrimidin-2-amine] to `CN[C@@H]1CCN(c2ccnc(NCCOC)n2)C1` [Example 82, (2-Methoxy-ethyl)-[4-(3R)-(3-methylamino-pyrrolidin-1-yl)-pyrimidin-2-yl]-amine], the Ki falls from 190 nM to 45.5 nM (4.2-fold). The second binds more tightly here.

First: N[C@@H]1CCN(c2ccnc(NCc3ccccn3)n2)C1 [Example 61]
Second: CN[C@@H]1CCN(c2ccnc(NCc3ccccn3)n2)C1 [Example 83, [4-(3R)-(3-Methylamino-pyrrolidin-1-yl)-pyrimidin-2-yl]-pyridin-2-ylmethyl-amine]
The Ki of the first is higher: greater than 10000 nM for the first, 196 nM for the second.

Going from `CN1CCN(c2ccnc(NCc3ccccn3)n2)CC1` [Example 62, 4-(4-Methylpiperazin-1-yl)-N-(pyridin-2-ylmethyl)pyrimidin-2-amine] to `CN[C@@H]1CCN(c2ccnc(NCc3ccc(F)cc3)n2)C1` [Example 79, (4-Fluoro-benzyl)-[4-(3R)-(3-methylamino-pyrrolidin-1-yl)-pyrimidin-2-yl]amine], the Ki falls from greater than 10000 nM to 11.6 nM. The second binds more tightly here.

Compared with `c1cc(N2CCNCC2)nc(NC2CCCC2)n1` [Example 63, Cyclopentyl-(4-piperazin-1-yl-pyrimidin-2-yl)-amine], `c1cc(N2CCNCC2)nc(NCC2CC2)n1` [Example 66, Cyclopropylmethyl-(4-piperazin-1-yl-pyrimidin-2-yl)-amine] is 5.2-fold lower in Ki: 293 nM for the first, 56.8 nM for the second. The second binds more tightly here.

First: CC(C)CNc1nccc(N2CCNCC2)n1 [Example 65, Isobutyl-(4-piperazin-1-yl-pyrimidin-2-yl)-amine]
Second: CCCCNc1nccc(N2CCNCC2)n1 [Example 68, Butyl-(4-piperazin-1-yl-pyrimidin-2-yl)-amine]
The Ki of the first is 1.9-fold higher: 68.6 nM for the first, 36.7 nM for the second. The second binds more tightly here.

Going from `COCCNc1nccc(N2CCNCC2)n1` [Example 72, N-(2-Methoxyethyl)-4-piperazin-1-ylpyrimidin-2-amine] to `NC1CN(c2ccnc(NCC3CC3)n2)C1` [Example 86, 4-(3-Aminoazetidin-1-yl)-N-(cyclopropylmethyl)pyrimidin-2-amine], the Ki falls from 376 nM to 33.7 nM (11-fold).

Going from `CCCCNc1nccc(N2CC[C@@H](NC)C2)n1` [Example 73, Butyl-[4-(3R)-(3-methylamino-pyrrolidin-1-yl)-pyrimidin-2-yl]-amine] to `CN[C@@H]1CCN(c2ccnc(NCC3CC3)n2)C1` [Example 77, Cyclopropylmethyl-[4-(3R)-(3-methylamino-pyrrolidin-1-yl)-pyrimidin-2-yl]-amine], the Ki rises from 0.7 nM to 3.3 nM (4.7-fold).

Compared with `CN[C@@H]1CCN(c2ccnc(NC3CC4CCC3C4)n2)C1` (stereo partly drawn) [Example 74, Bicyclo[2.2.1]hept-2-yl-[4-(3R)-(3-methylamino-pyrrolidin-1-yl)-pyrimidin-2-yl]-amine], `CN[C@@H]1CCN(c2ccnc(NC3CC3)n2)C1` [Example 80, Cyclopropyl-[4-(3R)-(3-methylamino-pyrrolidin-1-yl)-pyrimidin-2-yl]-amine] is 20-fold higher in Ki: 1.2 nM for the first, 23.5 nM for the second. The first binds more tightly here.

First: CN[C@@H]1CCN(c2ccnc(NC(C)C)n2)C1 [Example 78, Isopropyl-[4-(3R)-(3-methylamino-pyrrolidin-1-yl)-pyrimidin-2-yl]-amine]
Second: CN[C@@H]1CCN(c2ccnc(NCC3CCCO3)n2)C1 (stereo partly drawn) [Example 81, [4-(3R)-(3-Methylamino-pyrrolidin-1-yl)-pyrimidin-2-yl]-(tetrahydro-furan-2-ylmethyl)-amine]
The Ki of the first is 4.1-fold lower: 6 nM for the first, 24.7 nM for the second.

First: NC1CN(c2ccnc(NC3CCCC3)n2)C1 [Example 85, 4-(3-Aminoazetidin-1-yl)-N-cyclopentylpyrimidin-2-amine]
Second: NC1CN(c2ccnc(N[C@@H]3CCOC3)n2)C1 [Example 93, 4-(3-Aminoazetidin-1-yl)-N-[(3R)-tetrahydrofuran-3-yl]pyrimidin-2-amine]
The Ki of the first is 39-fold lower: 18.2 nM for the first, 702 nM for the second. The first binds more tightly here.

First: CC(C)(C)CNc1nccc(N2CC(N)C2)n1 [Example 88, 4-(3-Aminoazetidin-1-yl)-N-(2,2-dimethylpropyl)pyrimidin-2-amine]
Second: CC(C)CNc1nccc(N2CC(N)C2)n1 [Example 89, 4-(3-Aminoazetidin-1-yl)-N-(2-methylpropyl)pyrimidin-2-amine]
The Ki of the first is 1.6-fold lower: 42.7 nM for the first, 69.3 nM for the second. The first binds more tightly here.
